{"source": "patent US9695155B2", "about": "“Herbicidal substituted pyrimidinyloxy benzene compounds” (E. I. DU PONT DE NEMOURS AND COMPANY, priority 2013, dated 2017)", "key": {"kochia [1]": {"system": "kochia", "test": "Test A preemergence", "type": "in vivo, Kochia scoparia", "details": "for Plant response rating, Kochia: 0 to 100 scale where 0 is no effect and 100 is complete control", "how_it_was_run": "(§1)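 Scoring: eye-based comparison with untreated controls, 0 for no effect through 100 for complete control, at about day 10. Treatments: directed soil spray preemergence; foliar spray postemergence on 2–10 cm plants at the one- to two-leaf stage. Medium: loam soil with sand.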"}, "giant foxtail [2]": {"system": "giant foxtail", "test": "Test A preemergence", "type": "in vivo, Setaria faberii", "details": "for Plant response rating, Foxtail, Giant: 0 to 100 scale where 0 is no effect and 100 is complete control", "how_it_was_run": "as §1"}, "wheat": {"system": "wheat", "test": "Test A postemergence", "type": "in vivo, Triticum aestivum", "details": "0 to 100 scale, 0 no effect, 100 complete control", "how_it_was_run": "as §1"}, "rice": {"system": "rice", "test": "Test B flooded paddy test", "type": "in vivo, Oryza sativa", "details": "Flood, 250 g ai/ha; 0 to 100 scale where 0 is no effect and 100 is complete control", "how_it_was_run": "(§2)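 Visual ratings on a 0 to 100 scale, where 100 means complete control, compared treated plants with controls after 13 to 15 days in a greenhouse. Treatment went into paddy water 3 cm deep over the soil, applied to plants at the 2-leaf stage.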"}, "barnyardgrass [3]": {"system": "barnyardgrass", "test": "Test A preemergence", "type": "in vivo, Echinochloa crus-galli", "details": "for Plant response rating, Barnyardgrass: 0 to 100 scale where 0 is no effect and 100 is complete control", "how_it_was_run": "as §1"}, "blackgrass": {"system": "blackgrass", "test": "Test A postemergence", "type": "in vivo, Alopecurus myosuroides", "how_it_was_run": "as §1"}, "Heteranthera limosa": {"system": "Heteranthera limosa", "test": "Test B flooded paddy test", "type": "in vivo", "details": "Flood, 250 g ai/ha; 0 to 100 scale where 0 is no effect and 100 is complete control", "how_it_was_run": "as §2"}, "pigweed [4]": {"system": "pigweed", "test": "Test A preemergence", "type": "in vivo, Amaranthus retroflexus", "details": "for Plant response rating, Pigweed: 0 to 100 scale where 0 is no effect and 100 is complete control", "how_it_was_run": "as §1"}, "kochia [5]": {"system": "kochia", "test": "Test A postemergence", "type": "in vivo, Kochia scoparia", "how_it_was_run": "as §1"}, "ragweed [6]": {"system": "ragweed", "test": "Test A preemergence", "type": "in vivo, Ambrosia elatior", "details": "for Plant response rating, Ragweed: 0 to 100 scale where 0 is no effect and 100 is complete control", "how_it_was_run": "as §1"}, "ragweed [7]": {"system": "ragweed", "test": "Test A postemergence", "type": "in vivo, Ambrosia elatior", "details": "0 to 100 scale, 0 no effect, 100 complete control", "how_it_was_run": "as §1"}, "barnyardgrass [8]": {"system": "barnyardgrass", "test": "Test A postemergence", "type": "in vivo, Echinochloa crus-galli", "how_it_was_run": "as §1"}, "barnyardgrass [9]": {"system": "barnyardgrass", "test": "Test B flooded paddy test", "type": "in vivo, Echinochloa crus-galli", "details": "Flood, 250 g ai/ha; 0 to 100 scale where 0 is no effect and 100 is complete control", "how_it_was_run": "as §2"}, "sedge, umbrella": {"system": "sedge, umbrella", "test": "Test B flooded paddy test", "type": "in vivo, Cyperus difformis", "details": "Flood, 250 g ai/ha; 0 to 100 scale where 0 is no effect and 100 is complete control", "how_it_was_run": "as §2"}, "corn": {"system": "corn", "test": "Test A postemergence", "type": "in vivo, Zea mays", "how_it_was_run": "as §1"}, "pigweed [10]": {"system": "pigweed", "test": "Test A postemergence", "type": "in vivo, Amaranthus retroflexus", "details": "0 to 100 scale, 0 no effect, 100 complete control", "how_it_was_run": "as §1"}, "galium": {"system": "galium", "test": "Test A postemergence", "type": "in vivo, Galium aparine", "how_it_was_run": "as §1"}, "Italian ryegrass [11]": {"system": "Italian ryegrass", "test": "Test A postemergence", "type": "in vivo, Lolium multiflorum", "details": "0 to 100 scale, 0 no effect, 100 complete control", "how_it_was_run": "as §1"}, "Italian ryegrass [12]": {"system": "Italian ryegrass", "test": "Test A preemergence", "type": "in vivo, Lolium multiflorum", "details": "for Plant response rating, Ryegrass, Italian: 0 to 100 scale where 0 is no effect and 100 is complete control", "how_it_was_run": "as §1"}, "giant foxtail [13]": {"system": "giant foxtail", "test": "Test A postemergence", "type": "in vivo, Setaria faberii", "how_it_was_run": "as §1"}, "[14]": {"details": "31 g ai/ha, 0 to 100 scale, 0 no effect, 100 complete control"}, "[15]": {"details": "125 g ai/ha, 0 to 100 scale where 0 is no effect and 100 is complete control"}, "[16]": {"details": "31 g ai/ha, visual, approximately 10 days"}, "[17]": {"details": "125 g ai/ha, 0 to 100 scale, 0 no effect, 100 complete control"}}, "data": [{"smiles": "FC(F)(F)COc1cnn(-c2c(Cl)cccc2Oc2ncc(Cl)cn2)c1", "note": "[Compound 110]", "values": [{"measurement": "Kochia plant response rating (0 to 100 scale)", "setting": "kochia [1]; 31 g ai/ha", "value": 20}, {"measurement": "Plant response rating, Kochia", "setting": "kochia [1]; 125 g ai/ha", "value": 80}, {"measurement": "Foxtail, Giant plant response rating (0 to 100 scale)", "setting": "giant foxtail [2]; 31 g ai/ha", "value": 100}, {"measurement": "Plant response rating, Foxtail, Giant", "setting": "giant foxtail [2]; 125 g ai/ha", "value": 100}, {"measurement": "Plant response rating, Wheat", "setting": "wheat; 31 g ai/ha", "value": 0}, {"measurement": "Plant response rating, Rice", "setting": "rice", "value": 0}, {"measurement": "Barnyardgrass plant response rating (0 to 100 scale)", "setting": "barnyardgrass [3]; 31 g ai/ha", "value": 30}, {"measurement": "Plant response rating, Barnyardgrass", "setting": "barnyardgrass [3]; 125 g ai/ha", "value": 90}, {"measurement": "Plant response rating, Blackgrass", "setting": "blackgrass; [14]", "value": 20}, {"measurement": "Plant response rating, Blackgrass", "setting": "blackgrass; [15]", "value": 80}, {"measurement": "Plant response rating, Ducksalad", "setting": "Heteranthera limosa", "value": 95}, {"measurement": "Pigweed plant response rating (0 to 100 scale)", "setting": "pigweed [4]; 31 g ai/ha", "value": 100}, {"measurement": "Plant response rating, Pigweed", "setting": "pigweed [4]; 125 g ai/ha", "value": 100}, {"measurement": "Plant response rating, Kochia", "setting": "kochia [5]; [14]", "value": 90}, {"measurement": "Plant response rating, Kochia", "setting": "kochia [5]; [15]", "value": 100}, {"measurement": "Ragweed plant response rating (0 to 100 scale)", "setting": "ragweed [6]; 31 g ai/ha", "value": 0}, {"measurement": "Plant response rating, Ragweed", "setting": "ragweed [6]; 125 g ai/ha", "value": 10}, {"measurement": "Plant response rating, Ragweed", "setting": "ragweed [7]; 31 g ai/ha", "value": 10}, {"measurement": "Plant response rating, Barnyardgrass", "setting": "barnyardgrass [8]; [14]", "value": 10}, {"measurement": "Plant response rating, Barnyardgrass", "setting": "barnyardgrass [8]; [15]", "value": 90}, {"measurement": "Plant response rating, Barnyardgrass", "setting": "barnyardgrass [9]", "value": 45}, {"measurement": "Plant response rating, Sedge, Umbrella", "setting": "sedge, umbrella", "value": 95}, {"measurement": "Plant response rating, Corn", "setting": "corn; [14]", "value": 10}, {"measurement": "Plant response rating, Corn", "setting": "corn; [15]", "value": 50}, {"measurement": "Plant response rating, Pigweed", "setting": "pigweed [10]; 31 g ai/ha", "value": 100}, {"measurement": "Plant response rating, Galium", "setting": "galium; [14]", "value": 40}, {"measurement": "Plant response rating, Galium", "setting": "galium; [15]", "value": 90}, {"measurement": "Plant response rating, Ryegrass, Italian", "setting": "Italian ryegrass [11]; 31 g ai/ha", "value": 0}, {"measurement": "Ryegrass, Italian plant response rating (0 to 100 scale)", "setting": "Italian ryegrass [12]; 31 g ai/ha", "value": 0}, {"measurement": "Plant response rating, Ryegrass, Italian", "setting": "Italian ryegrass [12]; 125 g ai/ha", "value": 20}, {"measurement": "Plant response rating, Foxtail, Giant", "setting": "giant foxtail [13]; [14]", "value": 20}, {"measurement": "Plant response rating, Foxtail, Giant", "setting": "giant foxtail [13]; [15]", "value": 90}]}, {"smiles": "Cc1cc(C(F)(F)F)nn1-c1ccccc1Oc1ncc(Cl)cn1", "note": "[Compound 266]", "values": [{"measurement": "Plant response rating, Kochia", "setting": "kochia [1]; [16]", "value": 0}, {"measurement": "Kochia plant response rating (0 to 100 scale)", "setting": "kochia [1]; 125 g ai/ha", "value": 0}, {"measurement": "Plant response rating, Foxtail, Giant", "setting": "giant foxtail [2]; [16]", "value": 0}, {"measurement": "Foxtail, Giant plant response rating (0 to 100 scale)", "setting": "giant foxtail [2]; 125 g ai/ha", "value": 0}, {"measurement": "Plant response rating, Wheat", "setting": "wheat; 31 g ai/ha", "value": 0}, {"measurement": "Plant response rating, Wheat", "setting": "wheat; 125 g ai/ha", "value": 0}, {"measurement": "Plant response rating, Rice", "setting": "rice", "value": 0}, {"measurement": "Plant response rating, Barnyardgrass", "setting": "barnyardgrass [3]; [16]", "value": 0}, {"measurement": "Barnyardgrass plant response rating (0 to 100 scale, 0 is no effect, 100 is complete control)", "setting": "barnyardgrass [3]; 125 g ai/ha", "value": 0}, {"measurement": "Plant response rating, Blackgrass", "setting": "blackgrass; [14]", "value": 0}, {"measurement": "Plant response rating, Blackgrass", "setting": "blackgrass; [17]", "value": 0}, {"measurement": "Plant response rating, Ducksalad", "setting": "Heteranthera limosa", "value": 0}, {"measurement": "Plant response rating, Pigweed", "setting": "pigweed [4]; [16]", "value": 0}, {"measurement": "Pigweed plant response rating (0 to 100 scale)", "setting": "pigweed [4]; 125 g ai/ha", "value": 0}, {"measurement": "Plant response rating, Kochia", "setting": "kochia [5]; [14]", "value": 0}, {"measurement": "Plant response rating, Kochia", "setting": "kochia [5]; [17]", "value": 0}, {"measurement": "Plant response rating, Ragweed", "setting": "ragweed [6]; [16]", "value": 0}, {"measurement": "Ragweed plant response rating (0 to 100 scale)", "setting": "ragweed [6]; 125 g ai/ha", "value": 0}, {"measurement": "Plant response rating, Ragweed", "setting": "ragweed [7]; 31 g ai/ha", "value": 0}, {"measurement": "Plant response rating, Ragweed", "setting": "ragweed [7]; 125 g ai/ha", "value": 0}, {"measurement": "Plant response rating, Barnyardgrass", "setting": "barnyardgrass [8]; [14]", "value": 0}, {"measurement": "Plant response rating, Barnyardgrass", "setting": "barnyardgrass [8]; [17]", "value": 0}, {"measurement": "Plant response rating, Barnyardgrass", "setting": "barnyardgrass [9]", "value": 0}, {"measurement": "Plant response rating, Sedge, Umbrella", "setting": "sedge, umbrella", "value": 0}, {"measurement": "Plant response rating, Corn", "setting": "corn; [14]", "value": 0}, {"measurement": "Plant response rating, Corn", "setting": "corn; [17]", "value": 0}, {"measurement": "Plant response rating, Pigweed", "setting": "pigweed [10]; 31 g ai/ha", "value": 0}, {"measurement": "Plant response rating, Pigweed", "setting": "pigweed [10]; 125 g ai/ha", "value": 0}, {"measurement": "Plant response rating, Galium", "setting": "galium; [14]", "value": 0}, {"measurement": "Plant response rating, Galium", "setting": "galium; [17]", "value": 0}, {"measurement": "Plant response rating, Ryegrass, Italian", "setting": "Italian ryegrass [11]; 31 g ai/ha", "value": 0}, {"measurement": "Plant response rating, Ryegrass, Italian", "setting": "Italian ryegrass [11]; 125 g ai/ha", "value": 0}, {"measurement": "Plant response rating, Ryegrass, Italian", "setting": "Italian ryegrass [12]; [16]", "value": 0}, {"measurement": "Ryegrass, Italian plant response rating (0 to 100 scale)", "setting": "Italian ryegrass [12]; 125 g ai/ha", "value": 0}, {"measurement": "Plant response rating, Foxtail, Giant", "setting": "giant foxtail [13]; [14]", "value": 0}, {"measurement": "Plant response rating, Foxtail, Giant", "setting": "giant foxtail [13]; [17]", "value": 0}]}]}
